The values that follow come from patent US20050004200A1, “Pyrazole compounds as integrin receptor antagonists derivatives” (Pharmacia Corporation, priority 2002, published 2005).

Experiment in one series: not given
To be noted: in vivo.
“3-(1,3-benzodioxol-5-yl)-4-[5-[2-(1-methyl-1,2,3,4-tetrahydropyrido[2,3-b]pyrazin-6-yl)ethoxy]-1-(2,2,2-trifluoroethyl)-1H-pyrazol-3-yl]butanoic acid [Example 27]”: the “Rat AUC-PO/dose” value worked out at 2 µg·h/mL/mg/kg.

The next series in a line: plasma level upon oral dosing (AUC-PO). To be noted: plasma AUC normalised to dose.
In the case of `Cc1cc(CCOc2cc(CC(CC(=O)O)c3ccc4c(c3)OCO4)nn2C)nc2c1CCCN2` (centres unmarked) [Example 32, 3-(1,3-Benzodioxol-5-yl)-4-{1-methyl-5-[2-(4-methyl-5,6,7,8-tetrahydro-1,8-naphthyridin-2-yl)ethoxy]-1H-pyrazol-3-yl}butanoic acid], the “Rat AUC-PO/dose” value amounted to 2.2 µg·h/mL/mg/kg.
Still for that read-out and setting: next, `Cn1nc(CC(CC(=O)O)c2ccc3c(c2)OCO3)cc1OCCc1ccc2c(n1)NCCN2` (centres unmarked) [Example 25, 3-(1,3-benzodioxol-5-yl)-4-{1-methyl-5-[2-(1,2,3,4-tetrahydropyrido[2,3-b]pyrazin-6-yl)ethoxy]-1H-pyrazol-3-yl}butanoic acid]: 0.4 µg·h/mL/mg/kg; `COc1ccc(C(CC(=O)O)Cc2cc(OCCc3ccc4c(n3)NCCN4C)n(C)n2)cn1` (centres unmarked) [Example 7, 3-(6-methoxypyridin-3-yl)-4-{1-methyl-5-[2-(1-methyl-1,2,3,4-tetrahydropyrido[2,3-b]pyrazin-6-yl)ethoxy]-1H-pyrazol-3-yl}butanoic acid]: 0.8 µg·h/mL/mg/kg; `CN1CCNc2nc(CCOc3cc(CC(CC(=O)O)c4ccc5c(c4)OCO5)nn3C)ccc21` (centres unmarked) [Example 31, 3-(1,3-benzodioxol-5-yl)-4-{1-methyl-5-[2-(1-methyl-1,2,3,4-tetrahydropyrido[2,3-b]pyrazin-6-yl)ethoxy]-1H-pyrazol-3-yl}butanoic acid]: 1.9 µg·h/mL/mg/kg.
Same read-out and setting: next, `CNc1cccc(CCOc2cc(CC(CC(=O)O)c3ccc4c(c3)OCO4)nn2C)n1` (centres unmarked) [Example 8, 3-(1,3-benzodioxol-5-yl)-4-(1-methyl-5-{2-[6-(methylamino)pyridin-2-yl]ethoxy}-1H-pyrazol-3-yl)butanoic acid]: 0.7 µg·h/mL/mg/kg.
Take `Cn1nc(CC(CC(=O)O)c2ccc3c(c2)OCO3)cc1S(=O)(=O)CCc1ccc2c(n1)NCCC2` (centres unmarked) [Example 4, 3-(1,3-benzodioxol-5-yl)-4-(1-methyl-5-{[2-(5,6,7,8-tetrahydro-1,8-naphthyridin-2-yl)ethyl]sulfonyl}-1H-pyrazol-3-yl)butanoic acid]: the “Rat AUC-PO/dose” value is 0.7 µg·h/mL/mg/kg.
As for `O=C(O)CC(Cc1cc(OCCc2ccc3c(n2)NCCC3)n(-c2ccccc2)n1)c1ccc2c(c1)OCO2` (centres unmarked) [Example 21, 3-(1,3-benzodioxol-5-yl)-4-{1-phenyl-5-[2-(5,6,7,8-tetrahydro-1,8-naphthyridin-2-yl)ethoxy]-1H-pyrazol-3-yl}butanoic acid], the “Rat AUC-PO/dose” value worked out at 1.7 µg·h/mL/mg/kg.
Same read-out and setting: to `Cn1nc(CC(CC(=O)O)c2ccc3c(c2)OCO3)cc1OCCc1ccc2c(n1)NCCC2` (centres unmarked) [Example 1, 3-(1,3-benzodioxol-5-yl)-4-{1-methyl-5-[2-(5,6,7,8-tetrahydro-1,8-naphthyridin-2-yl)ethoxy]-1H-pyrazol-3-yl}butanoic acid] belongs 0.9 µg·h/mL/mg/kg; to `Cn1nc(CC(CC(=O)O)c2ccc3c(c2)OCO3)cc1SCCc1ccc2c(n1)NCCC2` (centres unmarked) [Example 3, 3-(1,3-benzodioxol-5-yl)-4-(1-methyl-5-{[2-(5,6,7,8-tetrahydro-1,8-naphthyridin-2-yl)ethyl]thio}-1H-pyrazol-3-yl)butanoic acid], 2.2 µg·h/mL/mg/kg; to `O=C(O)CC(Cc1cc(OCCc2ccc3c(n2)NCCN3)n(CC(F)(F)F)n1)c1ccc2c(c1)OCO2` (centres unmarked) [Example 26, 3-(1,3-benzodioxol-5-yl)-4-[5-[2-(1,2,3,4-tetrahydropyrido[2,3-b]pyrazin-6-yl)ethoxy]-1-(2,2,2-trifluoroethyl)-1H-pyrazol-3-yl]butanoic acid], 0.9 µg·h/mL/mg/kg.
On to `Cl.Cn1nc(CC(CC(=O)O)c2cnc(C3CC3)s2)cc1OCCc1ccc2c(n1)NCCC2` (centres unmarked) [Example 6, 3-(2-cyclopropyl-1,3-thiazol-5-yl)-4-{1-methyl-5-[2-(5,6,7,8-tetrahydro-1,8-naphthyridin-2-yl)ethoxy]-1H-pyrazol-3-yl}butanoic acid], for which the “Rat AUC-PO/dose” value was 1.1 µg·h/mL/mg/kg.
`COc1ccc(C(CC(=O)O)Cc2cc(OCCc3ccc4c(n3)NCCC4)n(CC(F)(F)F)n2)cn1` (centres unmarked) [Example 23, 3-(6-methoxypyridin-3-yl)-4-[5-[2-(5,6,7,8-tetrahydro-1,8-naphthyridin-2-yl)ethoxy]-1-(2,2,2-trifluoroethyl)-1H-pyrazol-3-yl]butanoic acid]: the “Rat AUC-PO/dose” value was 0.8 µg·h/mL/mg/kg.
The same measure, in the same setting: to `Cn1nc(CC(CC(=O)O)c2cnc(-c3ccc(Cl)cc3)s2)cc1OCCc1ccc2c(n1)NCCC2` (centres unmarked) [Example 2, 3-[2-(4-chlorophenyl)-1,3-thiazol-5-yl]-4-{1-methyl-5-[2-(5,6,7,8-tetrahydro-1,8-naphthyridin-2-yl)ethoxy]-1H-pyrazol-3-yl}butanoic acid] belongs 1 µg·h/mL/mg/kg.
